Columns and labels:
human neutrophils [1] = assay: Human neutrophil apoptosis (annexin-V-FITC binding, confirmed by morphology); format: cell-based; conditions: for rate of apoptosis, time course study: after 8 h, NG75 10 μM, HD 10 μM; for rate of constitutive apoptosis: increasing concentrations, over 20 h; for rates of apoptosis assessed by annexin V binding: stereoisomers at 20 μM, after 6 h, mean±s.e.m., n=4 donors, control 12.4±0.4%
Mcl-1 = Mcl-1 protein expression in neutrophils (western blot); format: cell-based, human
[2] = system: carrageenan-induced pleural inflammation; assay: Carrageenan-induced pleurisy; format: in vivo, C57BL/6J mice
caspase-3 = assay: Caspase-3 cleavage in neutrophils (western blot); conditions: 20 μM, 4 h
serum induced arthritis = assay: Passively-induced (K/BxN serum) arthritis; format: in vivo, C57BL/6J mice; conditions: 10 mg/kg i.p. on days 3-19 every second day
Protocol: Sera (100 μl) extracted from 60 day old arthritic K/B×N mice was injected intra-peritoneally into 6-8 week old female C57BL/6J mice (B&K, Hull, UK). Arthritis was scored by clinical examination. Briefly, a score of 1 was given for erythema alone or swelling of 1 digit. A score of 2 resulted from erythema plus swelling of the tarsal joints or swelling of the hock or wrist joint alone. A maximum score of 3 was achieved when swelling was present in both tarsal and hock joints, or both wrist and digits, or more than 2 digits and the tarsal joints. The score for each limb was added giving a maximum score of 12 and the mean score reflects the total score divided by the number of recipient mice per group.
Mice (n=10 in each group) were injected twice (days 0 and 3) with K/B×N serum derived from arthritic (day 60) K/B×N transgenic mice. Clinical scores were assessed on the days indicated.

human neutrophils [3] = assay: Reversal of dbcAMP, GMCSF and LPS mediated survival of neutrophils; format: cell-based; conditions: 30 min pre-incubation with survival factor, then 20 h
Protocol: At least 500 cells were counted per slide and the percentage apoptosis calculated. Apoptosis and loss of membrane integrity was also assessed by flow cytometry using human recombinant annexin-V-FITC (Roche, UK) to measure phosphatidylserine (PS) exposure, in combination with propidium iodide (Sigma). Stock annexin-V-FITC was diluted at 1:500 in annexin-V binding buffer (500 ml Hanks Balanced Salt Solution containing […]) and was added at a volume of 280 μl to 5×10^4 cells, and then incubated on ice for 10 min. 1 μl of PI (stock 1 mg/ml) was added to the samples shortly before analysis using the EPICS XL2 flow cytometer (Beckman Coulter, High Wycombe, UK). Where apoptosis data are presented as annexin-V binding, apoptosis was also confirmed by morphological assessment.
Since CDK inhibitors were able to accelerate apoptosis, the inventors investigated whether these compounds could also reverse the effects of agents known to delay apoptosis through different signaling pathways (Riley, N. A. et al. Anti-inflammatory & Anti-Allergy Agents in Medicinal Chemistry 5, 3-12 (2006)). […] Lipopolysaccharide (LPS) binds to Toll-like receptor (TLR)4, that interacts with CD14 eventually leading to mitogen-activation kinases (MAPK), PI3K and/or NF-κB signaling to inhibit apoptosis. […] Apoptosis was assessed by annexin-V-FITC, and checked by morphology.

tumor = conditions: cited from earlier work
[4] = zVAD-fmk 1 μg/Kg i.p. at 4 h intervals
[5] = zVAD-fmk 1 μg/Kg i.p. at 4 h intervals, R-roscovitine 10 mg/Kg
[6] = 10 or 100 mg/Kg i.p., 36 h post-carrageenan

Compound: COc1ccc(CNc2nc(N[C@@H](CO)C(C)C)nc3c2ncn3C(C)C)cc1 [NG75, 2-(1R-isopropyl-2-hydroxyethylamino)-6-(4-methoxy-benzylamino)-9-isopropylpurine]
- annexin-V/PI positive cell populations (secondary necrosis) (human neutrophils [1]; 20 h treatment): increased number
- rate of apoptosis, time course study (human neutrophils [1]; R-roscovitine 20 μM): increased the rate of apoptosis dramatically
- annexin V positive cells (human neutrophils [1]; after 8 h of treatment): marked increase
- rate of constitutive apoptosis (human neutrophils [1]): significantly increased

Compound: GM-CSF: pro-survival factor (R & D Systems)
- effect on fall of Mcl-1 levels in culture (Mcl-1; GM-CSF 50 U/ml): prevented

Compound: COC(=O)C[C@H](NC(=O)[C@H](C)NC(=O)[C@@H](NC(=O)OCc1ccccc1)C(C)C)C(=O)CF (racemic) [zVAD-fmk, z-Val-Ala-DL-Asp-fluoromethylketone]
- edema formation compared with saline or vehicle controls [2, 4]: increasing
- total inflammatory cell number compared with saline or vehicle controls [2, 4]: increasing
- effect on R-roscovitine increase in inflammatory cell apoptosis and macrophages containing apoptotic bodies [2, 5]: inhibited dramatically
- effect on R-roscovitine-induced decrease in inflammatory cells and edema formation [2, 5]: prevented
- effect on R-roscovitine induced apoptosis (human neutrophils [1]; zVAD-fmk 100 μM, R-roscovitine 20 μM, 6 h): prevented R-roscovitine induced apoptosis

Compound: CC[C@@H](CO)Nc1nc(NCc2ccccc2)c2ncn(C(C)C)c2n1 [S-roscovitine]
- rates of apoptosis assessed by annexin V binding (human neutrophils [1]): 75.6±3.3%

Compound: CC[C@H](CO)Nc1nc(NCc2ccccc2)c2ncn(C(C)C)c2n1 [R-roscovitine, (R)-2-[{9-(1-methylethyl)-6-[(phenylmethyl)amino]-9H-purin-2-yl]amino}-1-butanol]
- caspase-3 cleavage (caspase-3): results in caspase-3 cleavage
- arthritis as assessed by clinical scores (serum induced arthritis): dramatically resolved quicker
- inhibition of total inflammatory cell number compared with vehicle control ([2]; 10 mg/kg i.p. 24 h after carrageenan, 36 h post-carrageenan): greater than 50%
- number of monocytes/macrophages and neutrophils ([2]; 10 mg/kg i.p., 36 h post-carrageenan): reduction
- lung inflammation (inflammatory infiltrate in lung sections) ([2]; 100 mg/Kg i.p., 36 h post-carrageenan): dramatically reduced
- pleural cavity total cell numbers over seven days ([2]; 100 mg/kg i.p. at 24 h, all time points examined): marked resolution of inflammation
- amount of inflammatory cells in pleural cavity ([2]; 100 mg/kg i.p., 36 h post-carrageenan): near baseline levels
- IFN-γ in the inflammatory exudate [2, 6]: diminished
- IL-6 in the inflammatory exudate [2, 6]: diminished
- MCP-1 in the inflammatory exudate [2, 6]: diminished
- edema formation (total exudate volume), decrease compared with saline control ([2]; 36 h post-carrageenan): three-fold
- inflammatory cell apoptosis and macrophages containing apoptotic bodies in the pleural cavity ([2]; 36 h post-carrageenan): increase
- rate of apoptosis, time course study (human neutrophils [1]; R-roscovitine 20 μM): increased the rate of apoptosis dramatically
- rate of constitutive apoptosis (human neutrophils [1]): significantly increased
- rates of apoptosis assessed by annexin V binding (human neutrophils [1]): 75.9±3.5%
- effect on survival signals (dbcAMP, GMCSF, LPS delayed apoptosis) (human neutrophils [3]): clearly is dominant over survival factor mediated effects
- effect on GM-CSF mediated up-regulation of Mcl-1 (Mcl-1; R-roscovitine 20 μM plus GM-CSF 50 U/ml, 4 h): inhibits GM-CSF mediated up-regulation of Mcl-1
- tolerability (tumor; even with high doses of 2 g/kg): well tolerated
- tumor size (tumor; systemic administration): specific reduction in tumor size

Source: patent US20090325931A1, “USE OF CDK INHIBITORS FOR THE TREATMENT OF GRANULOCYTE MEDIATED DISORDERS” (University Court of the University of Edinburgh, priority 2006, published 2009)
